Assay results reported in BigSolDB 2.1.

CCCCCOC(=O)Nc1nc(=O)n([C@@H]2O[C@H](C)[C@@H](O)[C@H]2O)cc1F
Conditions	solubility (mole fraction)
in 2-ethylhexanol, 278.02 K	0.0011
in 2-ethylhexanol, 282.93 K	0.0013
in 2-ethylhexanol, 287.88 K	0.0019
in 2-ethylhexanol, 292.57 K	0.0027
in 2-ethylhexanol, 297.38 K	0.0036
in 2-ethylhexanol, 302.24 K	0.005
in 2-ethylhexanol, 307.13 K	0.0069
in 2-ethylhexanol, 312.04 K	0.0096
in 2-ethylhexanol, 316.73 K	0.0125
in 2-ethylhexanol, 321.76 K	0.0173
in 2-octanol, 278.04 K	0.001
in 2-octanol, 282.95 K	0.0014
in 2-octanol, 287.9 K	0.0018
in 2-octanol, 292.55 K	0.0025
in 2-octanol, 298.45 K	0.0036
in 2-octanol, 302.3 K	0.0047
in 2-octanol, 307.15 K	0.0064
in 2-octanol, 312.05 K	0.0087
in 2-octanol, 317.75 K	0.0116
in 2-octanol, 322.2 K	0.0151
in ethanol, 278.25 K	0.0099
in ethanol, 282.86 K	0.0123
in ethanol, 287.85 K	0.017
in ethanol, 292.84 K	0.0247
in ethanol, 297.75 K	0.0353
in ethanol, 302.55 K	0.048
in ethanol, 307.25 K	0.0676
in ethanol, 312.14 K	0.0933
in ethanol, 317.35 K	0.127
in ethanol, 322.13 K	0.166
in ethylene glycol, 278.65 K	0.01
in ethylene glycol, 283.15 K	0.0125
in ethylene glycol, 287.95 K	0.017
in ethylene glycol, 293 K	0.021
in ethylene glycol, 297.95 K	0.0267
in ethylene glycol, 302.95 K	0.0348
in ethylene glycol, 307.65 K	0.0437
in ethylene glycol, 312.1 K	0.0539
in ethylene glycol, 316.85 K	0.0661
in ethylene glycol, 322.25 K	0.0877
in isobutanol, 278.26 K	0.0012
in isobutanol, 283.15 K	0.0018
in isobutanol, 288.1 K	0.0029
in isobutanol, 293.38 K	0.0046
in isobutanol, 298.02 K	0.007
in isobutanol, 302.85 K	0.0107
in isobutanol, 307.4 K	0.0156
in isobutanol, 312.25 K	0.0232
in isobutanol, 316.95 K	0.0336
in isobutanol, 321.95 K	0.0492
in isopentanol, 278.25 K	0.0027
in isopentanol, 282.97 K	0.0038
in isopentanol, 288.76 K	0.0057
in isopentanol, 292.64 K	0.0074
in isopentanol, 297.33 K	0.0102
in isopentanol, 302.27 K	0.0141
in isopentanol, 307.06 K	0.0193
in isopentanol, 312.04 K	0.0267
in isopentanol, 316.78 K	0.0361
in isopentanol, 321.47 K	0.0485
in isopropanol, 277.98 K	0.0011
in isopropanol, 283.49 K	0.0016
in isopropanol, 288.07 K	0.0024
in isopropanol, 293.16 K	0.0037
in isopropanol, 297.34 K	0.0053
in isopropanol, 302.29 K	0.0079
in isopropanol, 307.07 K	0.0115
in isopropanol, 312.14 K	0.017
in isopropanol, 316.88 K	0.0241
in isopropanol, 321.47 K	0.034
in n-butanol, 278.1 K	0.0021
in n-butanol, 283.03 K	0.003
in n-butanol, 288.02 K	0.0045
in n-butanol, 293.53 K	0.007
in n-butanol, 298 K	0.0106
in n-butanol, 303.15 K	0.016
in n-butanol, 308.25 K	0.0239
in n-butanol, 312.35 K	0.0351
in n-butanol, 317.4 K	0.051
in n-butanol, 322.49 K	0.077
in n-heptanol, 278 K	0.0018
in n-heptanol, 283.15 K	0.0025
in n-heptanol, 288.33 K	0.0036
in n-heptanol, 292.53 K	0.0047
in n-heptanol, 297.63 K	0.0065
in n-heptanol, 303.3 K	0.0092
in n-heptanol, 308.35 K	0.0126
in n-heptanol, 313.25 K	0.017
in n-heptanol, 318.05 K	0.0226
in n-heptanol, 322.85 K	0.0299
in n-hexanol, 278.1 K	0.0018
in n-hexanol, 284.33 K	0.0029
in n-hexanol, 287.97 K	0.0038
in n-hexanol, 293.85 K	0.006
in n-hexanol, 297.6 K	0.008
in n-hexanol, 303.55 K	0.0125
in n-hexanol, 308.55 K	0.0173
in n-hexanol, 313.15 K	0.0241
in n-hexanol, 317.75 K	0.0333
in n-hexanol, 322.25 K	0.0461
in n-octanol, 278.65 K	0.0022
in n-octanol, 283 K	0.003
in n-octanol, 287.98 K	0.004
in n-octanol, 292.95 K	0.0055
in n-octanol, 298.35 K	0.0076
in n-octanol, 302.94 K	0.01
in n-octanol, 307.5 K	0.0131
in n-octanol, 312.35 K	0.0173
in n-octanol, 317.05 K	0.0226
in n-octanol, 322.05 K	0.0307
in n-pentanol, 278.2 K	0.002
in n-pentanol, 282.97 K	0.0031
in n-pentanol, 288.26 K	0.0051
in n-pentanol, 292.64 K	0.0071
in n-pentanol, 297.33 K	0.0101
in n-pentanol, 302.27 K	0.0146
in n-pentanol, 307.06 K	0.0205
in n-pentanol, 312.04 K	0.0292
in n-pentanol, 316.78 K	0.0404
in n-pentanol, 321.47 K	0.0555
in n-propanol, 278 K	0.0024
in n-propanol, 283.06 K	0.0037
in n-propanol, 287.98 K	0.0055
in n-propanol, 292.87 K	0.0088
in n-propanol, 297.33 K	0.0132
in n-propanol, 302.29 K	0.0205
in n-propanol, 307.07 K	0.0309
in n-propanol, 312.14 K	0.0471
in n-propanol, 316.88 K	0.0687
in n-propanol, 321.47 K	0.0997
in sec-butanol, 278.15 K	0.001
in sec-butanol, 283.17 K	0.0016
in sec-butanol, 288.13 K	0.0026
in sec-butanol, 293.35 K	0.0043
in sec-butanol, 298.44 K	0.0065
in sec-butanol, 302.9 K	0.0093
in sec-butanol, 307.65 K	0.014
in sec-butanol, 312.44 K	0.0207
in sec-butanol, 317.25 K	0.0301
in sec-butanol, 321.9 K	0.0428
in tert-butanol, 299.65 K	0.0078
in tert-butanol, 302.75 K	0.0096
in tert-butanol, 307.43 K	0.0139
in tert-butanol, 312.2 K	0.0199
in tert-butanol, 317.04 K	0.0294
in tert-butanol, 321.65 K	0.0423
in water, 278.25 K	0.0009
in water, 283.2 K	0.001
in water, 288.3 K	0.001
in water, 293.25 K	0.0011
in water, 298.25 K	0.0012
in water, 302.8 K	0.0013
in water, 308 K	0.0014
in water, 312.95 K	0.0015
in water, 317.65 K	0.0016
in water, 322.75 K	0.0017
